Values belong to the molecule of their own block, whether it stands above or below them.
Columns and labels:
[1] = Drug metabolism in pH 7.4 Tris-HCl buffer assessed as amount of phosphate ester metabolite formation at […] in presence of sphingosine kinase 1,2 and Mg-ATP incubated for 30 mins by TLC based analysis relative to fingolimod
[2] = tested on: Mus musculus; assay: Reduction in circulating lymphocytes in Balb/c mouse blood at 30 mg/kg, po measured at 4 hrs by hematology analyzer based analysis; format: functional; set-up: scale not given: the % may be the effect or the level left; conditions: 30 mg/kg, 4 h
[3] = tested on: Mus musculus; assay: Reduction in circulating lymphocytes in Balb/c mouse blood at 1 mg/kg, po measured at 4 hrs by hematology analyzer based analysis; format: functional; set-up: scale not given: the % may be the effect or the level left
[4] = tested on: Mus musculus; assay: Reduction in circulating lymphocytes in Balb/c mouse blood at 30 mg/kg, po measured at 24 hrs by hematology analyzer based analysis; format: functional; set-up: scale not given: the % may be the effect or the level left; conditions: 30 mg/kg, 24 h
[5] = tested on: Mus musculus; assay: Reduction in circulating lymphocytes in Balb/c mouse blood at 1 mg/kg, po measured at 24 hrs by hematology analyzer based analysis; format: functional; set-up: scale not given: the % may be the effect or the level left; conditions: 1 mg/kg, 24 h
[6] = Drug metabolism in Balb/c mouse blood assessed as concentration of parent compound at 30 mg/kg, po measured at 4 hrs by LC-MS/MS analysis; format: ADME, organism-based; conditions: read-out: Ct
[7] = Drug metabolism in Balb/c mouse blood assessed as concentration of parent compound at 1 mg/kg, po measured at 4 hrs by LC-MS/MS analysis; format: ADME, organism-based; conditions: in vivo, 1 mg/kg, 4 h, 1 mg/kg, 4 h, read-out: Ct
[8] = Drug metabolism in Balb/c mouse blood assessed as phosphate ester metabolite formation at 30 mg/kg, po measured at 4 hrs by LC-MS/MS analysis; format: ADME, organism-based; conditions: in vivo
[9] = Drug metabolism in Balb/c mouse blood assessed as concentration of phosphate ester metabolite formation at 1 mg/kg, po measured at 4 hrs by LC-MS/MS analysis; format: ADME, organism-based; conditions: in vivo, BLD = below limit of detection
[10] = Drug metabolism in Balb/c mouse blood assessed as concentration of parent compound at 30 mg/kg, po measured at 24 hrs by LC-MS/MS analysis; format: ADME, organism-based; conditions: in vivo, 30 mg/kg, 24 h, 30 mg/kg, 24 h, read-out: Ct
[11] = Drug metabolism in Balb/c mouse blood assessed as concentration of parent compound at 1 mg/kg, po measured at 24 hrs by LC-MS/MS analysis; format: ADME, organism-based; conditions: read-out: Ct
[12] = Drug metabolism in Balb/c mouse blood assessed as concentration of phosphate ester metabolite formation at 30 mg/kg, po measured at 24 hrs by LC-MS/MS analysis; format: ADME, organism-based; conditions: in vivo
[13] = Drug metabolism in Balb/c mouse blood assessed as concentration of phosphate ester metabolite formation at 1 mg/kg, po measured at 24 hrs by LC-MS/MS analysis; format: ADME, organism-based; conditions: in vivo, BLD = below limit of detection
[14] = Ratio of drug metabolism in Balb/c mouse blood assessed as phosphate ester metabolite to parent drug at 30 mg/kg, po measured at 24 hrs by LC-MS/MS analysis; format: ADME, organism-based; conditions: in vivo
[15] = tested on: Rattus norvegicus; assay: Reduction in circulating lymphocytes in Lewis rat blood at 2 mg/kg, po measured at 4 hrs by hematology analyzer based analysis; format: functional; set-up: scale not given: the % may be the effect or the level left
[16] = Drug metabolism in Lewis rat blood assessed as concentration of parent compound at 2 mg/kg, po measured at 4 hrs by LC-MS/MS analysis; format: ADME, organism-based; conditions: read-out: Ct
[17] = tested on: Rattus norvegicus; assay: Reduction in circulating lymphocytes in Lewis rat blood at 2 mg/kg, po measured at 24 hrs by hematology analyzer based analysis; format: functional; set-up: scale not given: the % may be the effect or the level left; conditions: 2 mg/kg, 24 h
[18] = Drug metabolism in Lewis rat blood assessed as concentration of parent compound at 2 mg/kg, po measured at 24 hrs by LC-MS/MS analysis; format: ADME, organism-based; conditions: read-out: Ct
[19] = Half-life in Lewis rat at 2 mg/kg, po measured over 72 hrs by LC-MS/MS analysis; format: ADME, organism-based; conditions: in vivo
[20] = Ratio of drug metabolism in Lewis rat blood assessed as phosphate ester metabolite to parent drug at 2 mg/kg, po measured at 24 hrs by LC-MS/MS analysis; format: ADME, organism-based; conditions: in vivo
[21] = tested on: Rattus norvegicus; assay: Drug metabolism in Lewis rat blood assessed as concentration of phosphate ester metabolite formation at 2 mg/kg, po measured at 4 hrs by LC-MS/MS analysis; conditions: in vivo

Structure (SMILES): Cn1cncc1CCC1CCc2cc([C@H]3CC[C@](N)(CO)C3)ccc2C1 (stereo partly drawn)
- Drug metabolism [1]: 5%

Structure (SMILES): N[C@]1(CO)CC[C@H](c2ccc3c(c2)CC[C@@H](CCc2cccnc2)C3)C1
- Drug metabolism [1]: 3%

Structure (SMILES): N[C@]1(CO)CC[C@H](c2ccc3c(c2)CC[C@@H](CCc2ncccn2)C3)C1
- Drug metabolism [1]: 4%

Structure (SMILES): N[C@]1(CO)CC[C@H](c2ccc3c(c2)CC[C@H](CCc2cccnc2)C3)C1
- Drug metabolism [1]: 24%

Structure (SMILES): N[C@]1(CO)CC[C@H](c2ccc3c(c2)CC[C@H](CCc2ncccn2)C3)C1
- Drug metabolism [1]: 6%

Structure (SMILES): COc1cccc(CC2CCc3cc([C@H]4CC[C@](N)(CO)C4)ccc3C2)c1 (stereo in doubt; 12b)
- Activity ([15]; 2 mg/kg, 4 h): <10%
- Activity [17]: 45%

Structure (SMILES): COc1ccc(CC2CCc3cc([C@H]4CC[C@](N)(CO)C4)ccc3C2)cc1 (stereo in doubt; 13a)
- Activity [15]: <10%
- Activity [17]: 52%

Structure (SMILES): COc1ccc(CC2CCc3cc([C@H]4CC[C@](N)(CO)C4)ccc3C2)cc1 (stereo in doubt; 13b)
- concentration at 4 h [16]: 90 nM
- Activity [17]: 73%
- concentration at 24 h [18]: 60 nM
- half-life [19]: 3840 min
- Ratio [20]: 1.3
- Drug metabolism [21]: 50 nM

Further lines, with some results ahead:

- Drug metabolism [1]: 4%
Structure (SMILES): N[C@]1(CO)CC[C@H](c2ccc3c(c2)CC[C@@H](CCc2ccccn2)C3)C1

- Drug metabolism [1]: 1.8%
Structure (SMILES): N[C@]1(CO)CC[C@H](c2ccc3c(c2)CC[C@H](CCc2ccccn2)C3)C1

- Drug metabolism [1]: 0%
Structure (SMILES): N[C@]1(CO)CC[C@H](c2ccc3c(c2)CCC(CCc2ccncc2)C3)C1 (single isomer, unassigned)

- concentration at 4 h ([6]; Balb/c, blood): 1500 nM
- concentration [7]: 44 nM
- Drug metabolism [8]: 43 nM
- Drug metabolism [9]: Bld
- concentration [10]: 760 nM
- concentration at 24 h ([11]; Balb/c, blood): 27 nM
- Drug metabolism [12]: 110 nM
- Drug metabolism [13]: Bld
- Ratio [14]: 0.14
Structure (SMILES): N[C@]1(CO)CC[C@H](c2ccc3c(c2)CCC(c2ccccc2)C3)C1 (stereo in doubt; 8a)
- Activity [2]: 67%
- Activity [3]: <10%
- Activity [4]: 88%
- Activity [5]: <10%

- concentration ([6]; in vivo, 30 mg/kg, 4 h, 30 mg/kg, 4 h): 750 nM
- concentration [7]: 16 nM
- Drug metabolism [8]: 36 nM
- concentration [10]: 300 nM
- concentration ([11]; in vivo, 1 mg/kg, 24 h, 1 mg/kg, 24 h): 16 nM
- Drug metabolism [12]: 49 nM
- Ratio [14]: 0.16
Structure (SMILES): N[C@]1(CO)CC[C@H](c2ccc3c(c2)CCC(c2ccccc2)C3)C1 (stereo in doubt; 8b)
- Activity [2]: 72%
- Activity [4]: 84%
- Activity [5]: 36%

- concentration at 4 h [16]: 50 nM
- concentration at 24 h [18]: 20 nM
- half-life [19]: 900 min
- Ratio [20]: 1
- Drug metabolism [21]: 10 nM
Structure (SMILES): COc1cccc(CC2CCc3cc([C@H]4CC[C@](N)(CO)C4)ccc3C2)c1 (stereo in doubt; 12a)
- Activity ([15]; 2 mg/kg, 4 h): 30%
- Activity [17]: 73%

Reference: ChEMBL document CHEMBL4765241, “Identification and Preclinical Pharmacology of ((1 R,3 S)-1-Amino-3-(( S)-6-(2-methoxyphenethyl)-5,6,7,8-tetrahydronaphthalen-2-yl)cyclopentyl)methanol (BMS-986166): A Differentiated Sphingosine-1-phosphate Receptor 1 (S1P) Modulator Advanced into Clinical Trials” (J Med Chem, 2019)
